# Reference: patent US11382328B2, “Rapid drug discovery methods for pathogen inactivation” (priority 2019, dated 2022)
# Like-named read-outs stand apart in the source and are kept apart here.
# System: E. coli strain W3110
# Assay: Synergy assays: Biolog chemical sensitivity panels with Group IB metal, coefficient of drug interaction (CDI) from relative growth
# Assay type: cell-based
# Settings: for CDI (coefficient of drug interaction), copper mixed with biocide: Copper (mM) section; for CDI (coefficient of drug interaction), gold + biocide: Gold (μM)
# [1] = 1st of 3 copper concentrations (value not shown), 1st of four biocide concentrations
# [2] = 1st of 3 copper concentrations (value not shown), 2nd of four biocide concentrations
# [3] = 1st of 3 copper concentrations (value not shown), 3rd of four biocide concentrations
# [4] = 1st of 3 copper concentrations (value not shown), 4th of four biocide concentrations
# [5] = 2nd of 3 copper concentrations (value not shown), 1st of four biocide concentrations
# [6] = 2nd of 3 copper concentrations (value not shown), 2nd of four biocide concentrations
# [7] = 2nd of 3 copper concentrations (value not shown), 3rd of four biocide concentrations
# [8] = 2nd of 3 copper concentrations (value not shown), 4th of four biocide concentrations
# [9] = 3rd of 3 copper concentrations (value not shown), 1st of four biocide concentrations
# [10] = 3rd of 3 copper concentrations (value not shown), 2nd of four biocide concentrations
# [11] = 3rd of 3 copper concentrations (value not shown), 3rd of four biocide concentrations
# [12] = 3rd of 3 copper concentrations (value not shown), 4th of four biocide concentrations
# [13] = Gold section of Table 5, first of three gold concentrations (μM, value not given), biocide concentration 1 of 4
# [14] = Gold section of Table 5, first of three gold concentrations (μM, value not given), biocide concentration 2 of 4
# [15] = Gold section of Table 5, second of three gold concentrations (μM, value not given), biocide concentration 2 of 4
# [16] = Gold section of Table 5, second of three gold concentrations (μM, value not given), biocide concentration 3 of 4
# [17] = Gold section of Table 5, second of three gold concentrations (μM, value not given), biocide concentration 4 of 4
# [18] = Gold section of Table 5, third of three gold concentrations (μM, value not given), biocide concentration 2 of 4
# [19] = Gold section of Table 5, third of three gold concentrations (μM, value not given), biocide concentration 3 of 4
# [20] = Silver 0.5 μM, biocide concentration 2 of 4
# [21] = Silver 0.5 μM, biocide concentration 3 of 4
# [22] = Silver 0.5 μM, biocide concentration 4 of 4
# [23] = Silver 1.0 μM, biocide concentration 2 of 4
# [24] = Silver 1.0 μM, biocide concentration 3 of 4
# [25] = Silver 1.0 μM, biocide concentration 4 of 4
# [26] = Silver 5.0 μM, biocide concentration 1 of 4
# [27] = Silver 5.0 μM, biocide concentration 2 of 4
# [28] = Silver 5.0 μM, biocide concentration 3 of 4
# [29] = Silver 5.0 μM, biocide concentration 4 of 4
substance,measurement,setting,value
gentamicin,"CDI (coefficient of drug interaction), copper mixed with biocide",[1],0.89
same,"CDI (coefficient of drug interaction), copper mixed with biocide",[2],0.87
same,"CDI (coefficient of drug interaction), copper mixed with biocide",[3],0.79
same,"CDI (coefficient of drug interaction), copper mixed with biocide",[4],0.86
same,"CDI (coefficient of drug interaction), copper mixed with biocide",[5],0.78
same,"CDI (coefficient of drug interaction), copper mixed with biocide",[6],0.80
same,"CDI (coefficient of drug interaction), copper mixed with biocide",[7],0.74
same,"CDI (coefficient of drug interaction), copper mixed with biocide",[8],1.54
same,"CDI (coefficient of drug interaction), copper mixed with biocide",[9],0.61
same,"CDI (coefficient of drug interaction), copper mixed with biocide",[10],0.59
same,"CDI (coefficient of drug interaction), copper mixed with biocide",[11],0.58
same,"CDI (coefficient of drug interaction), copper mixed with biocide",[12],0.61
same,CDI (coefficient of drug interaction),[13],0.97
same,CDI (coefficient of drug interaction),[14],1.00
same,CDI (coefficient of drug interaction),"Gold section of Table 5, first of three gold concentrations (μM, value not given), biocide concentration 3 of 4",0.99
same,CDI (coefficient of drug interaction),"Gold section of Table 5, second of three gold concentrations (μM, value not given), biocide concentration 1 of 4",0.97
same,CDI (coefficient of drug interaction),[15],0.99
same,CDI (coefficient of drug interaction),[16],1.00
same,CDI (coefficient of drug interaction),[17],1.00
same,CDI (coefficient of drug interaction),[18],0.97
same,CDI (coefficient of drug interaction),[19],1.00
same,CDI,"Silver 0.5 μM, biocide concentration 1 of 4",0.87
same,CDI,[20],0.86
same,CDI,[21],0.81
same,CDI,[22],0.79
same,CDI,[23],0.98
same,CDI,[24],0.42
same,CDI,[25],0.38
same,CDI,[26],1.00
same,CDI,[27],0.82
same,CDI,[28],0.74
same,CDI,[29],0.34
hydroxylamine,CDI (coefficient of drug interaction),,0.99
penimepicycline,CDI (coefficient of drug interaction),"Copper (mM), 1st of 3 copper concentrations (head line not shown), biocide concentration 1 of 4, E. coli",0.91
same,CDI (coefficient of drug interaction),"Copper (mM), 1st of 3 copper concentrations (head line not shown), biocide concentration 2 of 4, E. coli",1.07
same,CDI (coefficient of drug interaction),"Copper (mM), 1st of 3 copper concentrations (head line not shown), biocide concentration 3 of 4, E. coli",Tox
same,CDI (coefficient of drug interaction),"Copper (mM), 1st of 3 copper concentrations (head line not shown), biocide concentration 4 of 4, E. coli",Tox
same,CDI (coefficient of drug interaction),"Copper (mM), 2nd of 3 copper concentrations (head line not shown), biocide concentration 1 of 4, E. coli",0.70
same,CDI (coefficient of drug interaction),"Copper (mM), 2nd of 3 copper concentrations (head line not shown), biocide concentration 2 of 4, E. coli",0.87
same,CDI (coefficient of drug interaction),"Copper (mM), 2nd of 3 copper concentrations (head line not shown), biocide concentration 3 of 4, E. coli",Tox
same,CDI (coefficient of drug interaction),"Copper (mM), 2nd of 3 copper concentrations (head line not shown), biocide concentration 4 of 4, E. coli",Tox
same,CDI (coefficient of drug interaction),"Copper (mM), 3rd of 3 copper concentrations (head line not shown), biocide concentration 1 of 4, E. coli",0.51
same,CDI (coefficient of drug interaction),"Copper (mM), 3rd of 3 copper concentrations (head line not shown), biocide concentration 2 of 4, E. coli",0.64
same,CDI (coefficient of drug interaction),"Copper (mM), 3rd of 3 copper concentrations (head line not shown), biocide concentration 3 of 4, E. coli",Tox
same,CDI (coefficient of drug interaction),"Copper (mM), 3rd of 3 copper concentrations (head line not shown), biocide concentration 4 of 4, E. coli",Tox
same,"CDI (coefficient of drug interaction), gold + biocide","first of 3 gold concentrations, biocide concentration 1 of 4",1.07
same,"CDI (coefficient of drug interaction), gold + biocide","first of 3 gold concentrations, biocide concentration 2 of 4",1.12
same,"CDI (coefficient of drug interaction), gold + biocide","first of 3 gold concentrations, biocide concentration 3 of 4",Tox
same,"CDI (coefficient of drug interaction), gold + biocide","first of 3 gold concentrations, biocide concentration 4 of 4",Tox
same,"CDI (coefficient of drug interaction), gold + biocide","second of 3 gold concentrations, biocide concentration 3 of 4",Tox
same,"CDI (coefficient of drug interaction), gold + biocide","second of 3 gold concentrations, biocide concentration 4 of 4",Tox
same,"CDI (coefficient of drug interaction), gold + biocide","third of 3 gold concentrations, biocide concentration 1 of 4",0.90
same,"CDI (coefficient of drug interaction), gold + biocide","third of 3 gold concentrations, biocide concentration 2 of 4",0.80
same,"CDI (coefficient of drug interaction), gold + biocide","third of 3 gold concentrations, biocide concentration 3 of 4",Tox
same,"CDI (coefficient of drug interaction), gold + biocide","third of 3 gold concentrations, biocide concentration 4 of 4",Tox
same,CDI,[20],1.10
same,CDI,[21],Tox
same,CDI,[22],Tox
same,CDI,"Silver 1.0 μM, biocide concentration 1 of 4",0.91
same,CDI,[23],0.91
same,CDI,[24],Tox
same,CDI,[25],Tox
same,CDI,[26],0.49
same,CDI,[27],0.34
same,CDI,[28],Tox
same,CDI,[29],Tox
phleomycin,"CDI (coefficient of drug interaction), copper mixed with biocide",[1],0.99
same,"CDI (coefficient of drug interaction), copper mixed with biocide",[2],1.27
same,"CDI (coefficient of drug interaction), copper mixed with biocide",[3],Tox
same,"CDI (coefficient of drug interaction), copper mixed with biocide",[4],Tox
same,"CDI (coefficient of drug interaction), copper mixed with biocide",[5],1.09
same,"CDI (coefficient of drug interaction), copper mixed with biocide",[6],1.19
same,"CDI (coefficient of drug interaction), copper mixed with biocide",[7],Tox
same,"CDI (coefficient of drug interaction), copper mixed with biocide",[8],Tox
same,"CDI (coefficient of drug interaction), copper mixed with biocide",[9],0.99
same,"CDI (coefficient of drug interaction), copper mixed with biocide",[10],0.96
same,"CDI (coefficient of drug interaction), copper mixed with biocide",[11],Tox
same,"CDI (coefficient of drug interaction), copper mixed with biocide",[12],Tox
same,CDI (coefficient of drug interaction),[13],0.98
same,CDI (coefficient of drug interaction),[14],1.06
same,CDI (coefficient of drug interaction),"Gold section of Table 5, first of three gold concentrations (μM, value not given), biocide concentration 4 of 4",1.33
same,CDI (coefficient of drug interaction),[15],1.03
same,CDI (coefficient of drug interaction),[16],0.88
same,CDI (coefficient of drug interaction),[17],0.87
same,CDI (coefficient of drug interaction),"Gold section of Table 5, third of three gold concentrations (μM, value not given), biocide concentration 1 of 4",0.99
same,CDI (coefficient of drug interaction),[18],0.96
same,CDI (coefficient of drug interaction),[19],0.92
same,CDI (coefficient of drug interaction),"Gold section of Table 5, third of three gold concentrations (μM, value not given), biocide concentration 4 of 4",1.29
same,"CDI (coefficient of drug interaction), silver + biocide","Silver 0.5 μM, 1st of four biocide concentrations, E. coli",0.81
same,"CDI (coefficient of drug interaction), silver + biocide","Silver 0.5 μM, 2nd of four biocide concentrations, E. coli",0.61
same,"CDI (coefficient of drug interaction), silver + biocide","Silver 0.5 μM, 3rd of four biocide concentrations, E. coli",0.68
same,"CDI (coefficient of drug interaction), silver + biocide","Silver 0.5 μM, 4th of four biocide concentrations, E. coli",Tox
same,"CDI (coefficient of drug interaction), silver + biocide","Silver 1.0 μM, 1st of four biocide concentrations, E. coli",0.89
same,"CDI (coefficient of drug interaction), silver + biocide","Silver 1.0 μM, 2nd of four biocide concentrations, E. coli",0.81
same,"CDI (coefficient of drug interaction), silver + biocide","Silver 1.0 μM, 3rd of four biocide concentrations, E. coli",0.81
same,"CDI (coefficient of drug interaction), silver + biocide","Silver 1.0 μM, 4th of four biocide concentrations, E. coli",Tox
same,"CDI (coefficient of drug interaction), silver + biocide","Silver 5.0 μM, 1st of four biocide concentrations, E. coli",1.32
same,"CDI (coefficient of drug interaction), silver + biocide","Silver 5.0 μM, 2nd of four biocide concentrations, E. coli",1.43
same,"CDI (coefficient of drug interaction), silver + biocide","Silver 5.0 μM, 3rd of four biocide concentrations, E. coli",1.37
same,"CDI (coefficient of drug interaction), silver + biocide","Silver 5.0 μM, 4th of four biocide concentrations, E. coli",Tox
